In PMC13198257, “An aerosolized dual-action autotaxin inhibitor-PPARγ agonist for the treatment of pulmonary fibrosis” (Cell Reports Medicine, 2026):

Experiments:
NHLFs = assay: Mitotracker assay in NHLFs; type: cell-based, human; settings: 25 μM, TGFβ 10 ng/mL, 24 h
Description: NHLFs were plated at a density of 1,2 × 10^4 cells/well of a 96-well plate. The next day TGFβ (10 ng/mL) and EL244 (25 μM) or vehicle (DMSO) were added to the respective wells and incubated for 24 h. Medium was replaced with DMEM without phenol red that contained LumiTracker Mito Red CMXRos at 25 nM and a 30 min incubation followed. Medium was replaced with fresh DMEM without phenol red and without Lumitracker. Fluorescence was measured (excitation at 580 nm and reading at 600 nm) with a Tecan M200 Fluorimeter and normalized with cell number per well as measured with a Tecan Cyto Spark after cell fixation with PFA at a final concentration of 2%.

Autotaxin = target: T1, Autotaxin (Homo sapiens, UniProt Q13822); assay: HDX-MS of Autotaxin with and without EL244; type: binding
T1 construct: purchased Sino Biological 11308-H07H
Description: All HDX experiments were performed using a dual head parallel Trajan LEAP automation system (Carrboro, NC, USA).[153] Briefly, 5μL of reconstituted Autotaxin (1.25mg/mL) with and without EL244, was diluted into 100μL of labeling buffer (10mM PBS, 150mM sodium chloride, pD = 7.4 in D2O). pD was determined using pH measurements with a glass electrode and corrected for the isotopic effect.[154] Samples were labeled in quadruplicate for each labeling time (30s, 300s and 3000s) at 25°C. For experiments with bounded Autotaxin, both the protein stock and labeling buffer contained 50μM of the ligand to ensure >95% bound protein during labeling.[155] Afterward, 100 μL of labeled samples were quenched by mixing with equal amounts of precooled quench buffer (100mM glycine, 3M urea, 0.5M TCEP, pH 2.3 in water) at 1°C and held at that temperature for 120s to improve disulfide bond reduction. Non-deuterated controls and initial peptide map samples were prepared identically but using 10mM PBS, 150mM sodium chloride, pH = 7.4 in water as labeling buffer. […] Peptide masses were measured using a Waters SELECT SERIES cyclic IMS QTOF system using positive mode ionization and single pass ion mobility. All HDX experiments were measured using HDMS mode while initial peptide maps used HDMSE with a collision energy ramp of 20-45v.[156] […]

For `O=C1NC(=O)C(Cc2ccc(OCCC3CCN(C(=O)OCc4cc(Cl)cc(Cl)c4)CC3)cc2)S1` (stereo not drawn) [EL244, 3,5-dichlorobenzyl 4-(2-(4-((2,4-dioxothiazolidin-5-yl)methyl)phenoxy)ethyl)piperidine-1-carboxylate], the TGF-β-induced mitochondrial activation (NHLFs) was “reduced TGF-β-induced mitochondrial activation”, the “Binding site on ATX” value (Autotaxin; HDX-MS, protected region 214–289 mapped on 2XR9) was “binds to the hydrophobic pocket and the allosteric tunnel of ATX” and the ATX inhibitor type (Autotaxin; HDX/MS and MD analysis) was “type IV ATX inhibitor”.
